“Also recorded” adds a separate entry of the source. Where two headings read alike, the source gives them in different places.
Assays:
[1] = test system: V370M virus (recombinant virus with gag/pr genes from a clinical isolate); assay: microbe, parasite or virus in culture; format: cell-based, HIV-1; conditions: Human immunodeficiency virus 1, MT2, read-out: EC50 (SD)
[2] = test system: NRTI (41L, 67N, 215F, 219E, 69N), AZT-resistant virus 7324-1; format: cell-based, HIV-1
[3] = test system: NRTI (184V) resistant virus (LAI M184V); format: cell-based, HIV-1
[4] = test system: NNRTI (103N, 181C) resistant virus; format: cell-based, HIV-1
[5] = test system: INI (140S, 148H) resistant virus (NLRepRluc-G140S/Q148H); format: cell-based, HIV-1
[6] = test system: PI (54V, 82A, 84V 84V) resistant virus; format: cell-based, HIV-1
[7] = test system: HIV-1 NL4-3 ΔV370 variant (NLRepRlucP373S/Δ370); format: cell-based
[8] = test system: subtype B gag/pr recombinant viruses; assay: Multiple-cycle Gag/Pr phenotyping assay; format: cell-based, HIV-1
HIV-1 gp160 = target: T1, HIV-1 gp160 (Human immunodeficiency virus type 1 group M subtype B, UniProt P04578); assay: HIV-1 cell fusion assay; format: cell-based
T1 construct: expressed in transfected cells; host or cells: NL-TOE donor cells (target cells: HeLa C14)

HIV-1 NL4-3 = assay: Time-of-addition study, NL4-3-infected B6 cells; format: cell-based; conditions: single cycle; for effect on luciferase signal by time of addition: 24 h postinfection; for time postinfection at which effectiveness begins to be lost: >100-fold EC50
[9] = test system: HIV-LAI envelope-pseudotyped RepRlucP373SΔenv virus; assay: Two-stage single-cycle pseudotype assay (HIV-1 entry assay); format: cell-based
HIV-1 Gag (WT LAI VLPs) = HIV-1 Gag (WT LAI VLPs) (Human immunodeficiency virus type 1 group M subtype B, UniProt P03348); assay: [3H]BMS-955176-Gag binding (SPA); conditions: raltegravir at 10 μM; data not shown
[10] = target: WT HIV-1 VLPs, p25 to p24 (CA/SP1) cleavage (Human immunodeficiency virus type 1 group M subtype B, UniProt P03348); assay: HIV-1 VLP protease cleavage assay; format: biochemical; conditions: Western blot
[11] = test system: PI (46I, 82F, 84V, 90 M) resistant virus; format: cell-based, HIV-1
[12] = Human immunodeficiency virus 1, NL43, MT2
[13] = Human immunodeficiency virus 1, NL43, MT2, read-out: EC50 (SD)
[14] = Human immunodeficiency virus 1, read-out: EC50 (mean), sublibrary, None (WT), n=21
[15] = Human immunodeficiency virus 1, read-out: EC50 (mean), sublibrary, T371A/Q/N/S/TT, n=4
[16] = Human immunodeficiency virus 1, read-out: EC50 (mean), sublibrary, V362I, n=3
[17] = Human immunodeficiency virus 1, read-out: EC50 (mean), sublibrary, V370A + ΔT371, n=3
[18] = Human immunodeficiency virus 1, read-out: EC50 (mean), sublibrary, V370A, n=3
[19] = Human immunodeficiency virus 1, read-out: EC50 (mean), sublibrary, V370I/L/T, n=3
[20] = Human immunodeficiency virus 1, read-out: EC50 (mean), sublibrary, V370 M, n=5

Compound: COC(=O)N[C@H](C(=O)N[C@@H](Cc1ccccc1)[C@@H](O)CN(Cc1ccc(-c2ccccn2)cc1)NC(=O)[C@@H](NC(=O)OC)C(C)(C)C)C(C)(C)C [Atazanavir]
- EC50 [1]: 2.3 nM
- Fold change in EC50 (SD) relative to parental strain [2]: 2.27 (0.02)
- Fold change in EC50 (SD) relative to parental strain [3]: 1.1 (0.1)
- Fold change in EC50 (SD) relative to parental strain [4]: 0.93 (0.03)
- Fold change in EC50 (SD) relative to parental strain [5]: 1.0 (0.21)
- Fold change in EC50 (SD) relative to parental strain [6]: 39
- EC50 [7, 12]: 3.8 nM

Compound: C=C(C)[C@@H]1CC[C@]2(C(=O)O)CC[C@]3(C)[C@H](CC[C@@H]4[C@@]5(C)CC=C(c6ccc(C(=O)O)cc6)C(C)(C)[C@@H]5CC[C@]43C)[C@@H]12 [BMS-1]
- EC50 [7, 13]: > 6000 nM

Compound: C=C(C)[C@@H]1CC[C@]2(C(=O)NCCc3ccccn3)CC[C@]3(C)[C@H](CC[C@@H]4[C@@]5(C)CC=C(c6ccc(C(=O)O)cc6)C(C)(C)[C@@H]5CC[C@]43C)[C@@H]12 [BMS-2]
- EC50 [8, 14]: 14 nM
- EC50 [8, 15]: 49 nM
- EC50 [8, 16]: 29 nM
- EC50 [8, 17]: 629 nM
- EC50 [8, 18]: 38 nM
- EC50 [8, 19]: 26 nM
- EC50 [8, 20]: 76 nM
- EC50 [7, 13]: 415 nM

Compound: C=C(C)[C@@H]1CC[C@]2(C(=O)NCCN(C)C)CC[C@]3(C)[C@H](CC[C@@H]4[C@@]5(C)CC=C(c6ccc(C(=O)O)cc6)C(C)(C)[C@@H]5CC[C@]43C)[C@@H]12 [BMS-3]
- EC50 [7, 13]: 31 nM

Compound: COc1ccnc2[nH]cc(C(=O)C(=O)N3CCN(C(=O)c4ccccc4)C[C@H]3C)c12 [BMS-378806]
- EC50 (HIV-1 gp160; cell-cell fusion, luciferase, read-out: EC50): 0.9 nM
- effect on luciferase signal by time of addition (HIV-1 NL4-3): fully inhibitory (0% of control) only when added at the time of infection
- time postinfection at which effectiveness begins to be lost (HIV-1 NL4-3): ≤ 4 h
- inhibition of luciferase, compound added at stage 1 (virus production) [9]: inhibitory when added at either stage 1 or 2
- inhibition of luciferase, compound added at stage 2 (infection) [9]: inhibitory when added at either stage 1 or 2

Compound: C=C(C)[C@@H]1CC[C@]2(C(=O)O)CC[C@]3(C)[C@H](CC[C@@H]4[C@@]5(C)CC[C@H](OC(=O)CC(C)(C)C(=O)O)C(C)(C)[C@@H]5CC[C@]43C)[C@@H]12 [BVM, 3-O-(3′,3′-dimethylsuccinyl)betulinic acid, reference compound]
- competition for the binding of [3H]BMS-955176 (HIV-1 Gag (WT LAI VLPs)): A similar result was obtained by displacement
- inhibition of conversion of VLP p25 to p24 [10]: inhibited the conversion of HIV-1 WT VLP p25 to p24 in a dose-dependent manner
- EC50 [8, 14]: 14 nM
- EC50 [8, 15]: 113 nM
- EC50 [8, 16]: 36 nM
- EC50 [8, 17]: > 4000 nM
- EC50 [8, 18]: 227 nM
- EC50 [8, 19]: 251 nM
- EC50 [8, 20]: 903 nM
- effect on luciferase signal by time of addition (HIV-1 NL4-3): had no effect when added at any time point
- EC50 [7, 12]: ≥ 10000 nM
- EC50 [7, 13]: > 10000 nM
- inhibition of luciferase, compound added at stage 1 (virus production) [9]: inhibiting luciferase production only when added in the first stage; also recorded: does not attain complete inhibition relative to NFV
- inhibition of luciferase, compound added at stage 2 (infection) [9]: inhibiting luciferase production only when added in the first stage

Compound: CC(C)CN(C[C@@H](O)[C@H](Cc1ccccc1)NC(=O)O[C@H]1CO[C@H]2OCC[C@H]21)S(=O)(=O)c1ccc(N)cc1 [Darunavir]
- EC50 [1]: 2.3 nM
- Fold change in EC50 (SD) relative to parental strain [3]: 1.2 (0.4)
- Fold change in EC50 (SD) relative to parental strain [4]: 0.90 (0.1)
- Fold change in EC50 (SD) relative to parental strain [5]: 1.1 (0.1)
- Fold change in EC50 (SD) relative to parental strain [6]: 2.3
- EC50 [7, 12]: 4.5 nM
- Fold change in EC50 (SD) relative to parental strain [11]: 41 (1.9)

Compound: O=C1Nc2ccc(Cl)cc2[C@@](C#CC2CC2)(C(F)(F)F)O1 [Efavirenz]
- Fold change in EC50 (SD) relative to parental strain [3]: 1.0 (0.1)
- Fold change in EC50 (SD) relative to parental strain [4]: 55 (2.2)
- time postinfection at which effectiveness begins to be lost (HIV-1 NL4-3): 6 h
- Fold change in EC50 (SD) relative to parental strain [5]: 0.60 (0.3)
- Fold change in EC50 (SD) relative to parental strain [6]: 1.4
- Fold change in EC50 (SD) relative to parental strain [11]: 0.20 (0.01)

Compound: Nc1ccn([C@@H]2CS[C@H](CO)O2)c(=O)n1 [Lamivudine]
- EC50 [7, 12]: 470 nM

Compound: Cc1c(O)cccc1C(=O)N[C@@H](CSc1ccccc1)[C@H](O)CN1C[C@H]2CCCC[C@H]2C[C@H]1C(=O)NC(C)(C)C [NFV]
- EC50 (HIV-1 gp160): > 2000 nM
- effect on luciferase signal by time of addition (HIV-1 NL4-3): had no effect when added at any time point
- EC50 [7, 12]: 5 nM
- inhibition of luciferase, compound added at stage 1 (virus production) [9]: luciferase activity was inhibited
- inhibition of luciferase, compound added at stage 2 (infection) [9]: luciferase production was not inhibited

Compound: Cc1ccnc2c1NC(=O)c1cccnc1N2C1CC1 [Nevirapine]
- EC50 [1]: 930 nM
- Fold change in EC50 (SD) relative to parental strain [2]: 1.6 (0.2)
- Fold change in EC50 (SD) relative to parental strain [3]: 1.3 (0.2)
- Fold change in EC50 (SD) relative to parental strain [4]: >131 (108)
- Fold change in EC50 (SD) relative to parental strain [5]: 0.89 (0.59)
- EC50 [7, 12]: 170 nM
- Fold change in EC50 (SD) relative to parental strain [11]: 0.83 (0.08)

Compound: Cc1nnc(C(=O)NC(C)(C)c2nc(C(=O)NCc3ccc(F)cc3)c(O)c(=O)n2C)o1 [Raltegravir]
- EC50 [1]: 3.3 nM
- competition for the binding of [3H]BMS-955176 (HIV-1 Gag (WT LAI VLPs)): did not compete
- Fold change in EC50 (SD) relative to parental strain [3]: 1.9 (0.6)
- Fold change in EC50 (SD) relative to parental strain [4]: 1.8 (0.4)
- time postinfection at which effectiveness begins to be lost (HIV-1 NL4-3): 8 h
- Fold change in EC50 (SD) relative to parental strain [5]: >340 (72)
- EC50 [7, 12]: 3.4 nM
- Fold change in EC50 (SD) relative to parental strain [11]: 0.18 (0.07)

Compound: Cc1cc(/C=C/C#N)cc(C)c1Nc1ccnc(Nc2ccc(C#N)cc2)n1 [Rilpivirine]
- Fold change in EC50 (SD) relative to parental strain [3]: 2.0 (0.3)
- Fold change in EC50 (SD) relative to parental strain [4]: 8.1 (1.5)
- Fold change in EC50 (SD) relative to parental strain [5]: 1.0 (0.5)
- Fold change in EC50 (SD) relative to parental strain [11]: 2.6 (0.8)

Compound: C[C@H](Cn1cnc2c(N)ncnc21)OCP(=O)(O)O [Tenofovir]
- EC50 [1]: 5 nM
- EC50 [7, 12]: 7.2 nM

Compound: Cc1cn([C@H]2C[C@H](N=[N+]=[N-])[C@@H](CO)O2)c(=O)[nH]c1=O [Zidovudine]
- Fold change in EC50 (SD) relative to parental strain [2]: 79 (5)
- Fold change in EC50 (SD) relative to parental strain [3]: 0.78 (0.03)
- Fold change in EC50 (SD) relative to parental strain [4]: 1.03 (0.17)
- Fold change in EC50 (SD) relative to parental strain [5]: 0.82 (0.41)
